The values below come from US7803822B2, “Triazole derivative and use thereof” (Takeda Pharmaceutical Company Limited, priority 2005, dated 2010).

As a reminder, the melting point is the temperature of the solid-liquid transition. A word on the pIC50: it is the IC50 on a negative log10 scale, so that one unit is a factor of ten.

pIC50: −log10 of the molar value.

System in the first data set: not given
Test: not given
Conditions: not given
On to `CCNC(=O)c1ccc(-n2nnc(C(=O)NC3CC3)c2CNCc2ccccc2)cc1` [Example 126, 5-[(benzylamino)methyl]-N-cyclopropyl-1-{4-[(ethylamino)carbonyl]phenyl}-1H-1,2,3-triazole-4-carboxamide], for which the melting point was 153 °C.

The compound `CCNC(=O)c1ccc(-n2nnc(C(=O)NC3CC3)c2CCCCCF)cc1` [Example 111, N-cyclopropyl-1-{4-[(ethylamino)carbonyl]phenyl}-5-(5-fluoropentyl)-1H-1,2,3-triazole-4-carboxamide] had a melting point of 150.3 °C.

For the compound `CCCc1c(C(=O)NC2CC2)nnn1-c1ccc(C(=O)NCC)cc1O` [Example 315, N-cyclopropyl-1-{4-[(ethylamino)carbonyl]-2-hydroxyphenyl}-5-propyl-1H-1,2,3-triazole-4-carboxamide], the melting point was 203 °C.

Compound `CCNC(=O)c1ccc(-n2nnc(C(=O)NC3CC3)c2CCO)cc1` [Example 114, N-cyclopropyl-1-{4-[(ethylamino)carbonyl]phenyl}-5-(2-hydroxyethyl)-1H-1,2,3-triazole-4-carboxamide] yielded a melting point of 156 °C.

Regarding `CCNC(=O)c1ccc(-n2nnc(C(=O)NC3CC3)c2CO)c(O)c1` [Example 317, N-cyclopropyl-1-{4-[(ethylamino)carbonyl]-2-hydroxyphenyl}-5-(hydroxymethyl)-1H-1,2,3-triazole-4-carboxamide], the melting point was 185 °C.

For the compound `CCNC(=O)c1ccc(-n2nnc(C(=O)NC3CC3)c2CN2CCOCC2)cc1` [Example 128, N-cyclopropyl-1-{4-[(ethylamino)carbonyl]phenyl}-5-(morpholin-4-ylmethyl)-1H-1,2,3-triazole-4-carboxamide], the melting point was 234 °C (dec.).

Consider `CCNC(=O)c1ccc(-n2nnc(C(=O)NC3CC3)c2COCc2ccccc2)c(OCc2ccccc2)c1` [Example 316, 1-{2-(benzyloxy)-4-[(ethylamino)carbonyl]phenyl}-5-[(benzyloxy)methyl]-N-cyclopropyl-1H-1,2,3-triazole-4-carboxamide], for which the melting point was 132 °C.

`CCNC(=O)c1ccc(-n2nnc(C(=O)NC3CC3)c2CN2CCCC2)cc1` [Example 127, N-cyclopropyl-1-{4-[(ethylamino)carbonyl]phenyl}-5-(pyrrolidin-1-ylmethyl)-1H-1,2,3-triazole-4-carboxamide]: the melting point worked out at 164 °C.

On to `CCNC(=O)c1ccc(-n2nnc(C(=O)NC3CC3)c2CSC)cc1` [Example 129, N-cyclopropyl-1-{4-[(ethylamino)carbonyl]phenyl}-5-[(methylthio)methyl]-1H-1,2,3-triazole-4-carboxamide], for which the melting point was 192 °C.

`C=Cc1c(C(=O)NC2CC2)nnn1-c1ccc(C(=O)NCC)cc1` [Example 115, N-cyclopropyl-1-{4-[(ethylamino)carbonyl]phenyl}-5-vinyl-1H-1,2,3-triazole-4-carboxamide] registered a melting point of 162 °C.

The target in a further data set is T1, human PAR-1 (Homo sapiens, UniProt P25116).
T1 construct: expressed in transfected cells; host or cells: CHO-K1 (transformant flag/trn/CHO-K1)
T1 sequence (P25116 22-425): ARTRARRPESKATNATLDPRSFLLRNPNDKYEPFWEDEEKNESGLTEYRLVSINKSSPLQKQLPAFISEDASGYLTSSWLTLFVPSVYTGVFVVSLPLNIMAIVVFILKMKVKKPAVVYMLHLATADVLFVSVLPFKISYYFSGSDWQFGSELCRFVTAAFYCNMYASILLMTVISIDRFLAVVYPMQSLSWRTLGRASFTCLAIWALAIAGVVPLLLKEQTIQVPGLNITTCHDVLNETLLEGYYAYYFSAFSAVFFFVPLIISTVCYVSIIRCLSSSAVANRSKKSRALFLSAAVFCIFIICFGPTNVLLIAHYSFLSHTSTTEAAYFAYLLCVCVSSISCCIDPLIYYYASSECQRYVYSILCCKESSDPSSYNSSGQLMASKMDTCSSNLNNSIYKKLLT
The data set can be described thus: Evaluation of PAR-1 antagonistic action by intracellular calcium concentration variation assay (FLIPR). The note with it: human PAR-1-expressing CHO cells, agonist peptide SFLLRN-NH2 final concentration 0.3 nM, Fluo-3AM. It is filed as cell-based. The method, then:
Evaluation of PAR-1 Antagonistic Action of Compound by Intracellular Calcium Concentration Variation Assay
Human PAR-1-expressing cells was plated at 3×10^4 cells/well on a 96 well clear bottom plate (Corning 3904 type) and cultured for 16-24 hr. The medium was removed from the wells of the plate, measurement buffer (50 μL, 115 mM NaCl, 5.4 mM KCl, 1.8 mM CaCl2, 0.8 mM MgCl2, 13.8 mM D-glucose, 0.1% BSA, 20 mM HEPES, pH 7.4) containing 2.5 μg/mL of Fluo-3AM (manufactured by Dojindo Laboratories), 0.08% Pluronic F-127 and 2.5 mM Probenecid was added to the cells and the mixture was reacted at 37° C. for 1 hr. The cells were washed twice with the measurement buffer. After addition of the measurement buffer (100 μL), a measurement buffer (50 μL) containing a test compound was added, and the mixture was stood still for 10 min. The plate was moved to a fluorometry image-plate reader (FLIPR-1, manufactured by Molecular Devices). […] The intracellular calcium concentration was measured by FLIPR.
In general terms: Calcium flux is commonly read through the fluorescence of an indicator in the cells.
In the case of `CCNC(=O)c1ccc(-n2nnc(C(=O)NC3CC3)c2CCCCCF)cc1` [Example 111, N-cyclopropyl-1-{4-[(ethylamino)carbonyl]phenyl}-5-(5-fluoropentyl)-1H-1,2,3-triazole-4-carboxamide], the negative logarithm of the IC50 (pIC50) was 5.80.

For `CCCc1c(C(=O)NCc2ccc3c(c2)OCO3)nnn1-c1ccc(C(=O)NCC)cc1` [Example 86, N-(1,3-benzodioxol-5-ylmethyl)-1-{4-[(ethylamino)carbonyl]phenyl}-5-propyl-1H-1,2,3-triazole-4-carboxamide], the negative-log IC50 (pIC50) was 6.21.

Regarding `CCCCc1c(C(=O)NC2CC2)nnn1-c1ccc(C(=O)NCC)cc1` [Example 90, 5-butyl-N-cyclopropyl-1-{4-[(ethylamino)carbonyl]phenyl}-1H-1,2,3-triazole-4-carboxamide], the negative-log IC50 (pIC50) is 5.62.

In the case of `CCNC(=O)c1ccc(-n2nnc(C(=O)NC3CC3)c2CC2CCCC2)cc1` [Example 103, 5-(cyclopentylmethyl)-N-cyclopropyl-1-{4-[(ethylamino)carbonyl]phenyl}-1H-1,2,3-triazole-4-carboxamide], the pIC50 was 6.11.

In the case of `CCCc1c(C(=O)N2CCc3c([nH]c4ccccc34)C2)nnn1-c1ccc(C(=O)NCC)cc1` [Example 85, N-ethyl-4-[5-propyl-4-(1,3,4,9-tetrahydro-2H-β-carbolin-2-ylcarbonyl)-1H-1,2,3-triazol-1-yl]benzamide], the pIC50 is 5.72.

Consider `CCNC(=O)c1ccc(-n2nnc(C(=O)NC3CC3)c2CCC(C)C)cc1` [Example 97, N-cyclopropyl-1-{4-[(ethylamino)carbonyl]phenyl}-5-(3-methylbutyl)-1H-1,2,3-triazole-4-carboxamide], for which the pIC50 was 5.80.

Take `CCNC(=O)c1ccc(-n2nnc(C(=O)NC3CC3)c2COc2ccc(Br)cc2)cc1` [Example 116, 5-[(4-bromophenoxy)methyl]-N-cyclopropyl-1-{4-[(ethylamino)carbonyl]phenyl}-1H-1,2,3-triazole-4-carboxamide]: the pIC50 is 6.12.

For the compound `CCNC(=O)c1ccc(-n2nnc(C(=O)NC3CC3)c2CCc2ccccc2)cc1` [Example 98, N-cyclopropyl-1-{4-[(ethylamino)carbonyl]phenyl}-5-(2-phenylethyl)-1H-1,2,3-triazole-4-carboxamide], the negative-log IC50 (pIC50) is 6.30.

Turning to `CCNC(=O)c1ccc(-n2nnc(C(=O)NC3CC3)c2CCCO)cc1` [Example 113, N-cyclopropyl-1-{4-[(ethylamino)carbonyl]phenyl}-5-(3-hydroxypropyl)-1H-1,2,3-triazole-4-carboxamide], the negative logarithm of the IC50 (pIC50) was 5.51.

`CCNC(=O)c1ccc(-n2nnc(C(=O)NC3CC3)c2COc2cccc(Cl)n2)cc1` [Example 118, 5-{[(6-chloropyridin-2-yl)oxy]methyl}-N-cyclopropyl-1-{4-[(ethylamino)carbonyl]phenyl}-1H-1,2,3-triazole-4-carboxamide]: the pIC50 was 5.85.

Turning to `CCCc1c(C(=O)NC2CC2)nnn1-c1ccc(C(=O)NCC(C)C)cc1` [Example 52, N-cyclopropyl-1-{4-[(isobutylamino)carbonyl]phenyl}-5-propyl-1H-1,2,3-triazole-4-carboxamide], the negative logarithm of the IC50 (pIC50) is 5.85.

In the case of `CCNC(=O)c1ccc(-n2nnc(C(=O)NC3CC3)c2COc2ccc(F)cc2)cc1` [Example 123, N-cyclopropyl-1-{4-[(ethylamino)carbonyl]phenyl}-5-[(4-fluorophenoxy)methyl]-1H-1,2,3-triazole-4-carboxamide], the negative-log IC50 (pIC50) was 6.01.

With `CCNC(=O)c1ccc(-n2nnc(C(=O)NC3CC3)c2CCCOc2ccc(OC(F)(F)F)cc2)cc1` [Example 522, N-cyclopropyl-1-{4-[(ethylamino)carbonyl]phenyl}-5-{3-[4-(trifluoromethoxy)phenoxy]propyl}-1H-1,2,3-triazole-4-carboxamide], the pIC50 was 6.48.

`CCNC(=O)c1ccc(-n2nnc(C(=O)NC3CC3)c2CCCCF)cc1` [Example 108, N-cyclopropyl-1-{4-[(ethylamino)carbonyl]phenyl}-5-(4-fluorobutyl)-1H-1,2,3-triazole-4-carboxamide]: the negative-log IC50 (pIC50) was 6.21.

For the compound `CCNC(=O)c1ccc(-n2nnc(C(=O)NC3CC3)c2CSC)cc1` [Example 129, N-cyclopropyl-1-{4-[(ethylamino)carbonyl]phenyl}-5-[(methylthio)methyl]-1H-1,2,3-triazole-4-carboxamide], the pIC50 was 6.13.

As to `CCNC(=O)c1ccc(-n2nnc(C(=O)NC3CC3)c2CC(C)C)cc1` [Example 93, N-cyclopropyl-1-{4-[(ethylamino)carbonyl]phenyl}-5-isobutyl-1H-1,2,3-triazole-4-carboxamide], the pIC50 is 5.92.

Consider `CCCc1c(C(=O)NCc2cccc(F)c2)nnn1-c1ccc(C(=O)NCC)cc1` [Example 88, 1-{4-[(ethylamino)carbonyl]phenyl}-N-(3-fluorobenzyl)-5-propyl-1H-1,2,3-triazole-4-carboxamide], for which the negative logarithm of the IC50 (pIC50) is 6.14.

As to `CCCc1c(C(=O)NC2CC2)nnn1-c1ccc(NC(=O)CC(F)(F)F)cc1` [Example 25, N-cyclopropyl-5-propyl-1-{4-[(3,3,3-trifluoropropanoyl)amino]phenyl}-1H-1,2,3-triazole-4-carboxamide], the negative-log IC50 (pIC50) was 7.03.

As for `CCCc1c(C(=O)NC2CC2)nnn1-c1ccc(C(=O)NCC)cc1` [Example 43, N-cyclopropyl-1-{4-[(ethylamino)carbonyl]phenyl}-5-propyl-1H-1,2,3-triazole-4-carboxamide], the pIC50 is 5.82.

With `CCNC(=O)c1ccc(-n2nnc(C(=O)NC3CC3)c2CCCOCc2ccccc2)cc1` [Example 91, 5-[3-(benzyloxy)propyl]-N-cyclopropyl-1-{4-[(ethylamino)carbonyl]phenyl}-1H-1,2,3-triazole-4-carboxamide], the negative-log IC50 (pIC50) is 5.66.

With `CCCc1c(C(=O)NCC2CCCO2)nnn1-c1ccc(C(=O)NCC)cc1` (stereo not shown) [Example 82, 1-{4-[(ethylamino)carbonyl]phenyl}-5-propyl-N-(tetrahydrofuran-2-ylmethyl)-1H-1,2,3-triazole-4-carboxamide], the pIC50 was 5.72.
